Measured values from patent US8313777B2, “Water-dispersible oral, parenteral, and topical formulations for poorly water soluble drugs using smart polymeric nanoparticles” (The Johns Hopkins University, priority 2006, dated 2012).

Assays:
[1] = Solubilization in water, visual (turbidity, floating particles vs transparent solution); format: physicochemical; conditions: equivalent amounts of free and nanoparticle-encapsulated drug
[2] = Blood levels of rapamycin 2 hours after oral delivery (HPLC); format: in vivo, C57/B6 wild type mice; conditions: 15 mg/kg rapamycin or equivalent, 2 hours post delivery
From the text: FIG. 10 illustrates blood levels of rapamycin following oral delivery of polymeric nanoparticles. Rapamycin was encapsulated in nanoparticles comprised of increasing order of acrylic acid (AA) percentage in the co-polymeric composition. The nanoparticles were either administered as is, or after surface PEGylation. Compared are: Control A (rapamycin suspended in water); rapamycin nanoparticle comprised of NIPAAM:VP:AA in a ratio of 60:30:10 (designated as NVA631); rapamycin nanoparticle comprised of NIPAAM:VP:AA in a ratio of 60:20:20 (designated as NVA622); rapamycin nanoparticle comprised of NIPAAM:VP:AA in a ratio of 60:10:30 (designated as NVA613); and rapamycin nanoparticle comprised of NIPAAM:MMA:AA in a ratio of 60:20:20 (designated as NMA622). The corresponding PEGylated nanoparticles (PEG-NVA-631, PEG-NVA-622, PEG-NVA-613, and PEG-NMA-622) encapsulating rapamycin are designated as shaded bars. […] Blood levels are measured by HPLC from samples obtained at 2 hours post oral delivery.
Rapamycin is a poorly water soluble drug that has low oral bioavailability. […] At 2 hours post oral administration, the mice were bled and rapamycin concentrations in the blood were determined by high performance liquid chromatography (HPLC). […]

[3] = system: BxPC3 human pancreatic cancer cell line; test: In vitro cell viability (MTT) assay, BxPC3; format: cell-based; conditions: increasing dosages, 96 hours
From the text: In the illustrated example, NIPAAM/VP/AA polymeric nanoparticles in molar ratio of 60:20:20 were used for paclitaxel encapsulation. […] Also included as control in each condition were void polymeric nanoparticle equal to the amount required for encapsulating said dose of nanopaclitaxel (white bar) and solvent (dimethylsulfoxide [DMSO], blue bar) equal to the amount required for dissolving said dose of free paclitaxel. […] Thus, nano-encapsulation of the drug is not associated with loss of drug activity. […] All assays were performed in triplicate and error bars represent standard deviations.
FIG. 9 illustrates in vitro cell viability (MTT assay) performed using the water-soluble drug gemcitabine conjugated to the acrylic acid (AA) surface reactive functional group of polymeric nanoparticle. Unlike the poorly water drugs that are encapsulated within the nanoparticle, water soluble drugs like gemcitabine can be conjugated to the nanoparticle surface, rendering this compound amenable to oral delivery. Human pancreatic cancer cell line BxPC3 is incubated with increasing dosages of either free gemcitabine (black bar), nano-gemcitabine (white bar), void polymer (grey bar), or PBS solvent (patterned bar). UT=untreated. […] All assays were performed in triplicate and means and standard deviations are plotted. […]

CO[C@H]1/C=C/O[C@@]2(C)Oc3c(C)c(O)c4c(O)c(c(/C=N/N5CCN(C)CC5)c(O)c4c3C2=O)NC(=O)/C(C)=C\C=C\[C@H](C)[C@H](O)[C@@H](C)[C@@H](O)[C@@H](C)[C@H](OC(C)=O)[C@@H]1C [free rifampicin, rifampicin]
solubility in water (appearance of solution) [1]: essentially insoluble in water

CC(=O)O[C@H]1C(=O)[C@@]2(C)[C@H]([C@H](OC(=O)c3ccccc3)[C@]3(O)C[C@H](OC(=O)[C@H](O)[C@@H](NC(=O)c4ccccc4)c4ccccc4)C(C)=C1C3(C)C)[C@]1(OC(C)=O)CO[C@@H]1C[C@@H]2O [free paclitaxel, paclitaxel]
solubility in water (appearance of solution) [1]: essentially insoluble in water

CO[C@H]1C[C@@H]2CC[C@@H](C)[C@@](O)(O2)C(=O)C(=O)N2CCCC[C@H]2C(=O)O[C@H]([C@H](C)C[C@@H]2CC[C@@H](O)[C@H](OC)C2)CC(=O)[C@H](C)/C=C(\C)[C@@H](O)[C@@H](OC)C(=O)[C@H](C)C[C@H](C)/C=C/C=C/C=C/1C [free rapamycin, rapamycin]
blood level of rapamycin [2]: essentially undetectable
solubility in water (appearance of solution) [1]: essentially insoluble in water

Nc1ccn([C@@H]2O[C@H](CO)[C@@H](O)C2(F)F)c(=O)n1 [free gemcitabine, gemcitabine]
activity in cell viability assay, free vs nano-gemcitabine [3]: comparable activity
